Assay results reported in US20160074643A1, “SKIN CARE PRODUCTS” (The Procter & Gamble Company, priority 2014, published 2016).
“And” between values parts separate entries of the source, which are not always exact repeats. Identical values can stand only once.

Assay: Vitamin B3 in vivo skin penetration study #2: Tape Stripping Method, magnetic vs non-magnetic applicator
Set-up: species or system human; amount of niacinamide recovered from tape strip / amount of niacinamide recovered from tape strip, Avg / amount of niacinamide recovered, Sum 2-10 / amount of niacinamide recovered, Sum 2-10, Avg / amount of niacinamide recovered, Sum 6-10 / amount of niacinamide recovered, Sum 6-10, Avg: unit not given here
Conditions: for amount of niacinamide recovered from tape strip, Avg / amount of niacinamide recovered, Sum 2-10, Avg / amount of niacinamide recovered, Sum 6-10, Avg: average across all 10 test sites; for amount of niacinamide recovered, Sum 2-10, Avg / amount of niacinamide recovered, Sum 2-10: sum of strips 2-10; for amount of niacinamide recovered, Sum 6-10, Avg / amount of niacinamide recovered, Sum 6-10: sum of strips 6-10
Description: This method provides a suitable means of measuring the amount of skin care active present in skin, and comparing active versus passive application of the skin care active. Two identical circular areas of 7.9 cm^2 were marked on the volar forearms of volunteers. A measured dose (approximately 9 mg) of the skin care formulation (ingredients shown in Table 1) was applied to the delineated areas using a screw actuated syringe. Active application was carried out using purpose made applicators having a metallic aluminium skin contact surface behind which was the magnetic array. The cream was spread evenly across the entire delineated region using the applicator in a sweeping motion with a fixed speed of approximately 3.5 cm/s to mimic normal finger application. Passive application was performed using the tip of a finger in a sweeping motion identical to that of application using the applicator. The application period was 30 seconds during which time visual inspection was used to ensure even distribution and absorption of the formulation by skin. The application area was then left uncovered for a further 30 minutes to ensure complete absorption. The application area was then wiped thoroughly to remove any surface material, followed by carrying out tape stripping.
The Tape Stripping Method can be carried out using commercial pre-cut 22.1 mm tape stripping adhesive discs (D-SQUAME brand tape strips from Cuderm Corporation or equivalent) with an adhesive area of 3.8 cm^2. A 22.1 mm diameter circular region was marked at the center of the application area. A tape stripping adhesive disc was placed over the marked area and even pressure applied using a neoprene roller, rolled ten times over the surface. The adhesive disc was removed from the skin surface in a single pulling motion using manual tweezers. To ensure even removal of the stratum corneum, subsequent discs were removed in a north, south, east and west orientation. Each adhesive disc was non-destructively analyzed for relative protein content using the SquameScan™ 850 instrument (Heiland Electronics Wetzlar Germany). The adhesive disc was then immediately placed into a glass vial containing extraction solvent in preparation for subsequent analysis. Solvent extractions are conducted on each tape strip using conventional extraction methods, which are well known to those of ordinary skill in the art, and measuring the amount of niacinamide present in the extract, for example, by high performance liquid chromatography (“HPLC”) and/or mass spectrometry.
In this example, 5 test subjects (A to E in Tables 13 and 14) were selected. […] The applicator used for active application included Array #8 from Table 2. The applicator used for passive application was the same as the one used for active application except without the magnetic array. Each forearm included an active application test site and a passive application site for a total of 10 active test sites and 10 passive sites. The application time was 30 seconds with a speed of motion of approximately 3 cm per second, equating to a gentle rubbing action. Application of the composition was followed by a 30 minute absorption period. […] The level of niacinamide recovered from each tape strip was measured using HPLC.
The average value across all test sites is shown in the second to last cell of the row. The standard error of the mean (SEM) is shown in the last column of Tables 13 and 14. The SEM is calculated by dividing the standard deviation by the square root of the number of test sites. The active versus passive application results from Tables 13 and 14 are graphically illustrated in FIG. 7.
The enhancement values shown in Table 15 are calculated by dividing the active value from Table 14 by the passive value from Table 13. The average shown in the last column of Table 15 is calculated by averaging the enhancement values of all the test sites. […]

[1] = active value divided by passive value, average of all test sites
[2] = active value divided by passive value, individual test sites, Subjects A-E, Site 1/2
[3] = Active Application (magnetic applicator, Array #8)
[4] = Active Application (magnetic applicator, Array #8), individual test sites, Subjects A-E, Site 1/2
[5] = Passive Application (non-magnetic applicator)
[6] = Passive Application (non-magnetic applicator), individual test sites, Subjects A-E, Site 1/2

NC(=O)c1cccnc1 [niacinamide]
Enhancement value Strips 2-10, Avg [1]: 1.47 | Enhancement value Strips 6-10, Avg [1]: 1.46 | Enhancement value Strips 2-10 [2]: 1.63 and 1.35 and 1.77 and 1.47 and 1.51 and 1.26 and 1.19 and 1.39 and 1.59 and 1.54 | Enhancement value Strips 6-10 [2]: 1.53 (2×) and 1.34 and 1.71 and 1.41 and 1.83 and 1.19 and 1.21 and 1.39 and 1.43 | niacinamide delivered into the skin, active compared to passive application (magnetic applicator vs non-magnetic applicator): about 1.5 × | amount of niacinamide recovered from tape strip, Avg (strip 1, Active Application (magnetic applicator, Array #8)): 4.43 | amount of niacinamide recovered from tape strip, Avg (strip 1, Passive Application (non-magnetic applicator)): 3.87 | amount of niacinamide recovered from tape strip (strip 1, Passive Application (non-magnetic applicator), individual test sites, Subjects A-E, Site 1/2): 2.62 and 3.31 and 3.07 and 2.86 and 3.16 and 5.69 and 4.14 and 6.28 and 0.54 and 7.00 | amount of niacinamide recovered from tape strip, Avg (strip 2, Active Application (magnetic applicator, Array #8)): 6.10 | amount of niacinamide recovered from tape strip, Avg (strip 2, Passive Application (non-magnetic applicator)): 4.12 | amount of niacinamide recovered from tape strip (strip 2, Passive Application (non-magnetic applicator), individual test sites, Subjects A-E, Site 1/2): 2.66 and 3.81 and 2.71 and 2.52 and 4.24 and 7.80 and 5.47 and 7.28 and 1.84 and 2.88 | amount of niacinamide recovered from tape strip, Avg (strip 3, Active Application (magnetic applicator, Array #8)): 8.37 | amount of niacinamide recovered from tape strip, Avg (strip 3, Passive Application (non-magnetic applicator)): 5.69 | amount of niacinamide recovered from tape strip (strip 3, Passive Application (non-magnetic applicator), individual test sites, Subjects A-E, Site 1/2): 3.51 and 5.43 and 6.33 and 3.77 and 6.64 and 7.64 and 6.14 and 9.62 and 2.43 and 5.36 | amount of niacinamide recovered from tape strip, Avg (strip 4, Active Application (magnetic applicator, Array #8)): 8.25 | amount of niacinamide recovered from tape strip, Avg (strip 4, Passive Application (non-magnetic applicator)): 6.18 | amount of niacinamide recovered from tape strip (strip 4, Passive Application (non-magnetic applicator), individual test sites, Subjects A-E, Site 1/2): 4.22 and 2.79 and 8.53 and 4.24 and 7.48 and 7.15 and 5.87 and 11.29 and 1.29 and 8.91 | amount of niacinamide recovered from tape strip, Avg (strip 5, Active Application (magnetic applicator, Array #8)): 7.68 | amount of niacinamide recovered from tape strip, Avg (strip 5, Passive Application (non-magnetic applicator)): 4.91 | amount of niacinamide recovered from tape strip (strip 5, Passive Application (non-magnetic applicator), individual test sites, Subjects A-E, Site 1/2): 4.57 and 3.79 and 6.08 and 2.74 and 6.35 and 6.21 and 5.61 and 7.10 and 2.27 and 4.36 | amount of niacinamide recovered from tape strip, Avg (strip 6, Active Application (magnetic applicator, Array #8)): 7.02 | amount of niacinamide recovered from tape strip, Avg (strip 6, Passive Application (non-magnetic applicator)): 4.72 | amount of niacinamide recovered from tape strip (strip 6, Passive Application (non-magnetic applicator), individual test sites, Subjects A-E, Site 1/2): 4.37 and 3.42 and 6.69 and 1.97 and 5.29 and 7.95 and 4.56 and 6.46 and 2.62 and 3.85 | amount of niacinamide recovered from tape strip, Avg (strip 7, Active Application (magnetic applicator, Array #8)): 5.52 | amount of niacinamide recovered from tape strip, Avg (strip 7, Passive Application (non-magnetic applicator)): 3.66 | amount of niacinamide recovered from tape strip (strip 7, Passive Application (non-magnetic applicator), individual test sites, Subjects A-E, Site 1/2): 3.57 and 3.37 and 4.35 and 1.87 and 3.82 and 6.89 and 5.41 and 0.19 and 2.67 and 4.47 | amount of niacinamide recovered from tape strip, Avg (strip 8, Active Application (magnetic applicator, Array #8)): 4.63 | amount of niacinamide recovered from tape strip, Avg (strip 8, Passive Application (non-magnetic applicator)): 3.43 | amount of niacinamide recovered from tape strip (strip 8, Passive Application (non-magnetic applicator), individual test sites, Subjects A-E, Site 1/2): 2.65 and 2.92 and 2.85 and 1.56 and 4.65 and 5.34 and 2.94 and 5.75 and 1.88 and 3.71 | amount of niacinamide recovered from tape strip, Avg (strip 9, Active Application (magnetic applicator, Array #8)): 5.11 | amount of niacinamide recovered from tape strip, Avg (strip 9, Passive Application (non-magnetic applicator)): 3.59 | amount of niacinamide recovered from tape strip (strip 9, Passive Application (non-magnetic applicator), individual test sites, Subjects A-E, Site 1/2): 2.95 and 2.37 and 2.24 and 2.00 and 3.78 and 6.70 and 2.79 and 7.20 and 2.15 and 3.70 | amount of niacinamide recovered from tape strip, Avg (strip 10, Active Application (magnetic applicator, Array #8)): 4.48 | amount of niacinamide recovered from tape strip, Avg (strip 10, Passive Application (non-magnetic applicator)): 3.20 | amount of niacinamide recovered from tape strip (strip 10, Passive Application (non-magnetic applicator), individual test sites, Subjects A-E, Site 1/2): 1.58 and 2.24 and 1.54 and 1.31 and 4.53 and 5.34 and 2.42 and 6.19 and 0.71 and 6.10 | amount of niacinamide recovered, Sum 2-10, Avg [3]: 57.16 | amount of niacinamide recovered, Sum 2-10 [4]: 49.17 and 40.65 and 72.98 and 32.23 and 70.46 and 76.77 and 48.95 and 85.20 and 28.48 and 66.67 | amount of niacinamide recovered, Sum 2-10, Avg [5]: 39.48 | amount of niacinamide recovered, Sum 2-10 [6]: 30.09 and 30.15 and 41.32 and 21.97 and 46.79 and 61.02 and 41.20 and 61.08 and 17.87 and 43.34 | amount of niacinamide recovered, Sum 6-10, Avg [3]: 26.76 | amount of niacinamide recovered, Sum 6-10 [4]: 23.12 and 19.16 and 30.14 and 12.25 and 40.38 and 38.27 and 21.85 and 35.82 and 15.32 and 31.26 | amount of niacinamide recovered, Sum 6-10, Avg [5]: 18.59 | amount of niacinamide recovered, Sum 6-10 [6]: 15.13 and 14.32 and 17.67 and 8.70 and 22.07 and 32.21 and 18.11 and 25.79 and 10.04 and 21.84
